Drawing on US11008572B2, “Methods and compositions for modulating splicing” (SKYHAWK THERAPEUTICS, INC., priority 2017, dated 2021), this text covers IC50 and EC50 for 13 compounds.

What all share (format): cell-based
The test system of test [1] is FOXM1^A2 mRNA and FOXM1^BC mRNA. Put plainly: Splicing assay (FOXM1), qPCR of isoform mRNAs. The procedure, abridged: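 RT-qPCR read-out after 24 h compound exposure at 37° C., 0.2% DMSO, top dose 10 μM with 4-fold 8-point dilutions, 20,000 cells per well. Copy numbers from plasmid standard curves, PPIA-normalized, expressed as isoform ratio relative to DMSO.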
In general terms: Real-time PCR tracks product formation cycle by cycle.

Another test relates to IKBKAP^FL mRNA. The experiment in a line: IKBKAP splicing assay, qPCR. As to conditions: 24 hours of incubation. How it is done:
(§1) Various cells lines were treated with the SMSMs described herein. RNA was then isolated, cDNA synthesized, qPCR performed and the levels of IKBKAP targets of the SMSMs were determined.
(§2) On the day of the experiment, a 96-well plate was seeded with the cell lines of interest. The cells were diluted with full growth media to a concentration of 2.0×10^5 cells/mL and 100 μL of cells were added to each well (20,000 cells per well). The cells were treated with a compound immediately after plating.
(§3) The compounds were then added to the cell plate using the HP compound dispenser. In the initial experiment, a top concentration of 10 μM and an 8 point 4-fold dilution scheme was used. The stock compounds were made at a concentration of 5 mM, and the DMSO concentration was set to 0.2%. DMSO was used to normalize all the compound-containing wells and the untreated cells.
(§4) The treated cells were incubated at 37° C. in a 5% CO2 incubator for the desired amount of time. Plates were placed in a plastic bag with a wet paper towel to prevent evaporation.
(§5) RNA was isolated using the Cells to CT kit (ThermoFisher, AM1728). The cells were washed once with 100 μL cold PBS. 50 μL of lysis buffer was added to each well/tube (49.5 μL lysis buffer+0.5 μL DNase I per well/tube). The lysis reaction was mixed and incubated at room temperature for 5 minutes. 5 μL of stop solution was added directly into each cell lysis reaction and mixed by pipetting up and down 5 times. The plates/tubes were incubated at room temperature for 2 minutes then placed on ice if the cDNA synthesis was to be performed immediately. Otherwise, the plates/tubes were stored at −80° C.
(§6) cDNA synthesis reactions were then performed. 40 μL RT master mix was added to PCR tubes or plate wells. 10 μL of RNA was added to each tube/well. The RT thermal cycler program was then run and tubes or plate wells were incubated at 37° C. for 1 hour, then at 95° C. for 5 minutes to deactivate the enzyme.
(§7) The qPCR was performed using a QuantStudio 6 instrument (ThermoFisher) and the following cycling conditions and according to the tables below. All samples and standards were analyzed in triplicate. Cycle 1: 2 minutes at 50° C. Cycle 2: 10 minutes at 95° C. Cycle 3 (repeat 40 times): 15 seconds at 95° C., 1 minute at 60° C.
(§8) The determined IKBKAP^FL and […] isoform quantities were then used to determine the IKBKAP^FL: IKBKAP^Δ20 ratio at increasing SMSM compound concentrations. The PPIA quantities were used in the normalization to account of cell proliferation effects of the compounds.
(§9) An assay to measure the IKBKAP^FL mRNA and IKBKAP^Δ20 mRNA simultaneously in cell wells was performed. The RNA values were measured relative to DMSO control and also included a housekeeping gene, PPIA to ensure data was consistent. The mRNA values were measured after 24 hours of incubation with the SMSM compounds.

A further test relates to IKBKAP^Δ20 mRNA. The experiment in a line: IKBKAP splicing assay, qPCR. As to conditions: 24 hours of incubation. On the procedure: as §1, §2, §3, §4, §5, §6, §7, §8, §9
A further test relates to A-673 cells. The experiment in a line: Cell viability, crystal violet staining. Conditions: Homo sapiens, A673, cell viability. An outline of the steps: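 Readout is absorbance at 570 nm of crystal violet, taken up in 0.1 M sodium citrate in 50% ethanol after staining with 0.5% dye in 25% methanol. Plates held 5×10^3 cells per well, and compounds were added one day after seeding for 72 hours. Data are relative to vehicle, mean±SE.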

Setting [2] is: FoxM1 BC mRNA decrease (exon included), read-out: Splice IC50 (nM) FoxM1 BC mRNA decrease (exon included).
The mark [3] stands for this setting: read-out: Splice EC50 (nM) FoxM1 A mRNA increase (exon excluded).
Where [4] appears, read: read-out: A-673 IC50 (nM) Cell viability.
The mark [5] stands for this setting: 24 h, FoxM1 BC mRNA decrease (exon included), 0.1-1000 nM, 24 hours, read-out: Splice IC50 (nM), FoxM1 BC mRNA decrease (exon included).
[6] abbreviates: FoxM1 A mRNA increase (exon excluded), 0.1-1000 nM, 24 hours, read-out: Splice EC50 (nM), FoxM1 A mRNA increase (exon excluded).
Where [7] appears, read: read-out: A-673 IC50 (nM), Cell viability.

A word on the EC50: it is the concentration needed to bring the measured effect to its halfway point.

Read-outs that look alike come from different tables or passages of the source. A value given as a limit tells only on which side of the number the result lay.

In the case of `C[C@]12CC[C@](C)(C[C@@H](Oc3ccc(-c4ccc(-c5cn[nH]c5)cc4O)nn3)C1)N2` [compound 152, 2-(6-(((1R,3s,5S)-1,5-dimethyl-8-azabicyclo[3.2.1]octan-3-yl)oxy)pyridazin-3-yl)-5-(1H-pyrazol-4-yl)phenol], the IC50 in test [1] (setting [2]) is 10 to 100 nM; in the test on IKBKAP^Δ20 mRNA, over 1000 nM; in the test on A-673 cells (setting [4]), 101 to 250 nM. For the same compound, the EC50 in test [1] (setting [3]) fell in the range of 10 to 100 nM; in the test on IKBKAP^FL mRNA it was 351 to 1000 nM.
In the case of `CN(c1ccc(-c2ccc(-c3cn[nH]c3)cc2O)nn1)[C@@H]1C[C@H]2COC[C@@H](C1)N2` [compound 154, 2-(6-(((1R,5S,7r)-3-oxa-9-azabicyclo[3.3.1]nonan-7-yl)(methyl)amino)pyridazin-3-yl)-5-(1H-pyrazol-4-yl)phenol], the IC50 (in test [1] (setting [2]); in the test with A-673 cells (setting [4])) was 10 to 100 nM throughout. Besides, the EC50 in test [1] (setting [3]) lay in the range of 10 to 100 nM; in the test with IKBKAP^FL mRNA, 351 to 1000 nM.
Consider `CN(c1ccc(-c2cc(F)c(-c3cn[nH]c3)cc2O)nn1)[C@@H]1C[C@H]2CC[C@@H](C1)N2` [compound 161, 2-(6-(((1R,3s,5S)-8-azabicyclo[3.2.1]octan-3-yl)(methyl)amino)pyridazin-3-yl)-4-fluoro-5-(1H-pyrazol-4-yl)phenol], for which the IC50 in test [1] (setting [2]) was under 10 nM; with IKBKAP^Δ20 mRNA it was under 200 nM; in the test on A-673 cells (setting [4]), under 10 nM. Further, the EC50 in test [1] (setting [3]) is under 10 nM; in the test with IKBKAP^FL mRNA it was under 100 nM.
For the compound `CN(c1ccc(-c2cc3cccnc3cc2O)nn1)[C@@H]1C[C@H]2CC[C@@H](C1)N2` [compound 162, 6-(6-(((1R,3s,5S)-8-azabicyclo[3.2.1]octan-3-yl)(methyl)amino)pyridazin-3-yl)quinolin-7-ol], the figures for the IC50 in the test with IKBKAP^Δ20 mRNA and in the test on A-673 cells (setting [4]) were 201 to 1000 nM and 251 to 500 nM, respectively.
Take `CN(c1ccc(-c2ccc(-n3ccnc3)cc2O)nn1)[C@@H]1C[C@H]2CC[C@@H](C1)N2` [compound 217, 2-(6-(((1R,3s,5S)-8-azabicyclo[3.2.1]octan-3-yl)(methyl)amino)pyridazin-3-yl)-5-(1H-imidazol-1-yl)phenol]: the IC50 is 10 to 100 nM in test [1] (setting [5]), 201 to 1000 nM in the test on IKBKAP^Δ20 mRNA and 10 to 100 nM in the test on A-673 cells (setting [7]). Further, the EC50 in test [1] (setting [6]) was under 10 nM; with IKBKAP^FL mRNA, 351 to 1000 nM.
Consider `Cc1cn(-c2ccc(-c3ccc(N(C)[C@@H]4C[C@H]5CC[C@@H](C4)N5)nn3)c(O)c2)cn1` [compound 218, 2-(6-(((1R,3s,5S)-8-azabicyclo[3.2.1]octan-3-yl)(methyl)amino)pyridazin-3-yl)-5-(4-methyl-1H-imidazol-1-yl)phenol], for which the IC50 in test [1] (setting [5]) was under 10 nM; in the test with IKBKAP^Δ20 mRNA, over 1000 nM; in the test on A-673 cells (setting [7]) it was 10 to 100 nM. For the same compound, the EC50 is under 10 nM in test [1] (setting [6]) and 351 to 1000 nM with IKBKAP^FL mRNA.
On to `CN(c1ccc(-c2ccc(-n3nccn3)cc2O)nn1)[C@@H]1C[C@H]2CC[C@@H](C1)N2` [compound 223, 2-(6-(((1R,3s,5S)-8-azabicyclo[3.2.1]octan-3-yl)(methyl)amino)pyridazin-3-yl)-5-(2H-1,2,3-triazol-2-yl)phenol], for which the IC50 was under 10 nM in test [1] (setting [5]); 11 to 100 nM in test [1] (Homo sapiens, A-375, 24 h, A-375 cells, 24 hours, table does not say EC50 or IC50, read-out: FOXM1); 200 to 500 nM in test [1] (Homo sapiens, BXPC-3, 24 h, BxPC-3 cells, 24 hours, table does not say EC50 or IC50, read-out: FOXM1); 200 to 500 nM in test [1] (Homo sapiens, DU-145, 24 h, DU-145 cells, 24 hours, table does not say EC50 or IC50, read-out: FOXM1); 101 to 200 nM in test [1] (Homo sapiens, Daoy, 24 h, Daoy cells, 24 hours, table does not say EC50 or IC50, read-out: FOXM1); 11 to 100 nM in test [1] (Homo sapiens, G-401, 24 h, G-401 cells, 24 hours, table does not say EC50 or IC50, read-out: FOXM1). The IC50 in test [1] (Homo sapiens, SH-SY5Y, 24 h, SH-SY5Y cells, 24 hours, table does not say EC50 or IC50, read-out: FOXM1) was 11 to 100 nM; in test [1] (Homo sapiens, TT, 24 h, T.T cells, 24 hours, table does not say EC50 or IC50, read-out: FOXM1) it was 101 to 200 nM; in the test on IKBKAP^Δ20 mRNA it was over 1000 nM; in the test on A-673 cells (setting [7]), 10 to 100 nM. The EC50 in test [1] (setting [6]) is under 10 nM; in the test with IKBKAP^FL mRNA it was 101 to 350 nM.
For `Cc1ncc(-c2ccc(-c3ccc(N(C)[C@@H]4C[C@H]5CC[C@@H](C4)N5)nn3)c(O)c2)o1` [compound 228, 2-(6-(((1R,3s,5S)-8-azabicyclo[3.2.1]octan-3-yl)(methyl)amino)pyridazin-3-yl)-5-(2-methyloxazol-5-yl)phenol], the IC50 in test [1] (setting [5]) was 10 to 100 nM; in the test on IKBKAP^Δ20 mRNA, over 1000 nM; in the test with A-673 cells (setting [7]) it was 10 to 100 nM. Also, the figures for the EC50 (in test [1] (setting [6]); with IKBKAP^FL mRNA) were under 10 nM and 351 to 1000 nM, respectively.
On to `CN(c1ccc(-c2ccc(-c3cnn(C)c(=O)c3)cc2O)nn1)[C@@H]1C[C@H]2CC[C@@H](C1)N2` [compound 238, 5-(4-(6-(((1R,3s,5S)-8-azabicyclo[3.2.1]octan-3-yl)(methyl)amino)pyridazin-3-yl)-3-hydroxyphenyl)-2-methylpyridazin-3(2H)-one], for which the IC50 in test [1] (setting [5]) was in the range of 10 to 100 nM; in the test with IKBKAP^Δ20 mRNA, 201 to 1000 nM; in the test on A-673 cells (setting [7]), 10 to 100 nM. The EC50 is under 10 nM in test [1] (setting [6]) and 101 to 350 nM with IKBKAP^FL mRNA.
Compound `CN(c1ccc(-c2ccc(-c3cc(=O)n(C)cn3)cc2O)nn1)[C@H]1C[C@]2(C)CCC[C@](C)(C1)N2` [compound 266, 6-(4-(6-(((1R,3s,5S)-1,5-dimethyl-9-azabicyclo[3.3.1]nonan-3-yl)(methyl)amino)pyridazin-3-yl)-3-hydroxyphenyl)-3-methylpyrimidin-4(3H)-one] gave an EC50 with IKBKAP^FL mRNA of under 100 nM. Also, the values for the IC50 in the test on IKBKAP^Δ20 mRNA and with A-673 cells (setting [7]) were under 200 nM and 10 to 100 nM, respectively.
In the same order, the values of `Oc1cc(-c2cn[nH]c2)c(F)cc1-c1ccc(O[C@@H]2C[C@H]3CCC[C@@H](C2)N3)nn1` [compound 278, 2-(6-(((1R,3s,5S)-9-azabicyclo[3.3.1]nonan-3-yl)oxy)pyridazin-3-yl)-4-fluoro-5-(1H-pyrazol-4-yl)phenol] are 101 to 350 nM, under 200 nM and 10 to 100 nM.
As for `CN(c1ccc(-c2cc(F)c(-c3cc[nH]c(=O)c3)cc2O)nn1)[C@H]1C[C@]2(C)CCC[C@](C)(C1)N2` [compound 307, 4-(4-(6-(((1R,3s,5S)-1,5-dimethyl-9-azabicyclo[3.3.1]nonan-3-yl)(methyl)amino)pyridazin-3-yl)-2-fluoro-5-hydroxyphenyl)pyridin-2(1H)-one], the IC50 is under 10 nM in test [1] (FoxM1 BC mRNA decrease (exon included), read-out: Splice IC50 (nM), FoxM1 BC mRNA decrease (exon included)) and 10 to 100 nM with A-673 cells (read-out: A-673 IC50 (nM), cell viability). In test [1] (read-out: Splice EC50 (nM), FoxM1 A mRNA increase (exon excluded)), the EC50 was under 10 nM.
With `CN(c1ccc(-c2ccc(-c3cn[nH]c3)cc2O)nn1)C1[C@H]2CN(C(=O)CCN)C[C@@H]12` (stereo partly drawn) [compound 315, 3-amino-1-((1R,5S)-6-((6-(2-hydroxy-4-(1H-pyrazol-4-yl)phenyl)pyridazin-3-yl)(methyl)amino)-3-azabicyclo[3.1.0]hexan-3-yl)propan-1-one], the EC50 in the test with IKBKAP^FL mRNA is over 1000 nM. In the test on IKBKAP^Δ20 mRNA, this compound gave an IC50 of over 1000 nM.
